Some test systems named below: CAKI-1 renal; HCT-15 colon; RXF 393 renal; SF-268 CNS; SK-MEL-2 melanoma; SK-MEL-28 melanoma; SNB-19 CNS; SW-620 colon; RPMI-8226 leukemia.
Assay in all cases: DTP human tumour cell line panel, 48 h

Structures are written as SMILES.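 Method: 48-hour compound exposure of cells in 96-well plates, five concentrations, linear interpolation of endpoints. GI50: concentration for 50% inhibition of growth. Definition used: TGI = concentration required for complete inhibition of growth.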

On to `O=c1nc(NC(c2ccccc2)(c2ccccc2)c2ccccc2)ccn1CCNCCn1ccc(NC(c2ccccc2)(c2ccccc2)c2ccccc2)nc1=O`, for which the TGI in the assay with CAKI-1 renal is more than 100 µM; in the assay with HCT-15 colon, more than 100 µM; in the assay on RXF 393 renal it was 25.6 µM; with SF-268 CNS it was 32.4 µM; in the assay on SK-MEL-2 melanoma it was 9.32 µM; in the assay with SK-MEL-28 melanoma it was 22.2 µM. The TGI is 23.4 µM with SNB-19 CNS and 31.9 µM in the assay on SW-620 colon.

With `CN(C)CCNC(=O)c1cccc2[nH]c(-c3cccnc3)nc12`, the TGI with CAKI-1 renal came to 88.1 µM; in the assay on HCT-15 colon, 79.6 µM; in the assay with RXF 393 renal, 33.8 µM; in the assay on SF-268 CNS, 98.7 µM; with SK-MEL-2 melanoma, 62.8 µM; in the assay with SK-MEL-28 melanoma, 83.8 µM. The TGI is more than 100 µM in the assay on SNB-19 CNS and 42.1 µM in the assay with SW-620 colon.

Take `COc1ccc(CC(=O)NCCc2ccc(OC)c(OC)c2)cc1Br`: the TGI in the assay with CAKI-1 renal, with RXF 393 renal, in the assay with SF-268 CNS, in the assay on SK-MEL-2 melanoma, with SK-MEL-28 melanoma and in the assay with SNB-19 CNS was more than 100 µM throughout. The TGI in the assay on SW-620 colon is more than 100 µM.

`Cc1c(C(=O)CC(=O)C(=O)Nc2ccc(Cl)cc2)[n+](=O)c2ccccc2n1[O-]`: the TGI in the assay with CAKI-1 renal, in the assay with HCT-15 colon, with RPMI-8226 leukemia, in the assay on SF-268 CNS, with SK-MEL-2 melanoma and with SK-MEL-28 melanoma was more than 100 µM in each case. The TGI in the assay on SNB-19 CNS and in the assay with SW-620 colon was more than 100 µM in each case.

With `CCCC/C=C1\CCC(C)(CN(C)C)C1=O` (centres undefined), the TGI with CAKI-1 renal, in the assay with HCT-15 colon, in the assay on RXF 393 renal, in the assay on SF-268 CNS, in the assay with SK-MEL-2 melanoma and in the assay with SK-MEL-28 melanoma was more than 100 µM throughout. This compound also yielded a TGI in the assay on SW-620 colon of more than 100 µM.

As for `Cc1ccc(NC(=O)C(=O)CC(=O)c2c(C)n([O-])c3ccccc3[n+]2=O)cc1`, the TGI in the assay on CAKI-1 renal is more than 100 µM; in the assay with HCT-15 colon it was 89.4 µM; in the assay with RPMI-8226 leukemia, 58.6 µM; in the assay on RXF 393 renal, more than 100 µM; in the assay with SF-268 CNS it was 96.2 µM; in the assay with SK-MEL-2 melanoma, 53 µM. The TGI in the assay with SK-MEL-28 melanoma, in the assay on SNB-19 CNS and in the assay with SW-620 colon was more than 100 µM in each case.

In the case of `O=C1CCCC(=O)N1CCc1c[nH]c2ccccc12`, the TGI with CAKI-1 renal, in the assay on RXF 393 renal, with SF-268 CNS, in the assay with SK-MEL-2 melanoma, in the assay on SK-MEL-28 melanoma and in the assay with SNB-19 CNS was more than 100 µM each time. In the assay with SW-620 colon, this compound gave a TGI of more than 100 µM.

Regarding `COC(=O)[C@]12CC=C3O[C@@H]4OC5(CCCCC5)O[C@@H]4C3[C@@H]1C(=O)CCC2=O` (some centres undefined), the TGI in the assay with CAKI-1 renal, with HCT-15 colon, in the assay on RPMI-8226 leukemia, in the assay with SF-268 CNS, in the assay with SK-MEL-2 melanoma and with SK-MEL-28 melanoma was more than 100 µM throughout. Also, the TGI in the assay on SNB-19 CNS and in the assay with SW-620 colon was more than 100 µM in each case.

With `Fc1ccccc1C1SCc2nc3ccccc3n21` (centres undefined), the TGI with CAKI-1 renal, in the assay on RPMI-8226 leukemia, in the assay on RXF 393 renal, in the assay on SF-268 CNS, with SK-MEL-2 melanoma and with SK-MEL-28 melanoma was more than 100 µM in each case. In addition, the TGI with SNB-19 CNS and with SW-620 colon was more than 100 µM each time.

`Cc1cc(NS(=O)(=O)c2ccc(NC(=O)c3ccc(Cl)c4c(Nc5ccc(S(=O)(=O)N=C(N)N)cc5)c5ccccc5nc34)cc2)no1`: the TGI in the assay on HCT-15 colon is more than 100 µM; with RPMI-8226 leukemia, more than 100 µM; with RXF 393 renal, 48.6 µM; in the assay on SF-268 CNS, more than 100 µM; in the assay on SK-MEL-28 melanoma it was more than 100 µM; in the assay on SNB-19 CNS, more than 100 µM.

As to `CN1CC[C@]2(C)c3cc(O)ccc3CC3CCCC1C32C` (some centres undefined), the TGI in the assay with CAKI-1 renal, in the assay on HCT-15 colon, with RPMI-8226 leukemia, with RXF 393 renal, with SF-268 CNS and in the assay on SK-MEL-28 melanoma was more than 100 µM in each case. Further, the TGI with SNB-19 CNS and in the assay with SW-620 colon was more than 100 µM throughout.

As to `COc1ccc(S(=O)(=O)N/N=C/c2cc(I)cc([N+](=O)[O-])c2O)cc1OC`, the TGI is 85.3 µM in the assay on CAKI-1 renal; more than 100 µM in the assay with HCT-15 colon; 65.1 µM in the assay with RPMI-8226 leukemia; 45.6 µM in the assay with SK-MEL-2 melanoma; 88.3 µM with SNB-19 CNS; more than 100 µM with SW-620 colon.

As for `CN(C)C=[N+]=[N-]`, the TGI in the assay on CAKI-1 renal, in the assay with HCT-15 colon, in the assay with RPMI-8226 leukemia, in the assay on RXF 393 renal, with SF-268 CNS and in the assay on SK-MEL-2 melanoma was more than 100 µM throughout. The TGI in the assay with SNB-19 CNS and in the assay on SW-620 colon was more than 100 µM each time.

Regarding `c1ccc2cc3[s+]snc3cc2c1`, the TGI in the assay on CAKI-1 renal, with HCT-15 colon, in the assay on RXF 393 renal, in the assay with SF-268 CNS, in the assay with SK-MEL-2 melanoma and in the assay with SK-MEL-28 melanoma was more than 100 µM throughout. In addition, the TGI with SNB-19 CNS and in the assay with SW-620 colon was more than 100 µM in each case.

In the case of `O=C(NCCCCCCNC(=O)OCCSCCn1cc(C(=O)NC(=O)OCc2ccccc2)c(=O)[nH]c1=O)OCCSCCn1cc(C(=O)NC(=O)OCc2ccccc2)c(=O)[nH]c1=O`, the TGI in the assay with CAKI-1 renal, in the assay with HCT-15 colon, in the assay with RPMI-8226 leukemia, in the assay on RXF 393 renal, with SK-MEL-2 melanoma and in the assay with SNB-19 CNS was more than 100 µM in each case. In addition, in the assay on SW-620 colon, the TGI was more than 100 µM.

As for `Cc1[nH]c(=O)n2c(C)nnc2c1C(=O)Nc1cc(Cl)cc(Cl)c1`, the TGI in the assay on CAKI-1 renal was more than 100 µM; with HCT-15 colon, 78.7 µM; in the assay on RPMI-8226 leukemia it was more than 100 µM; in the assay with RXF 393 renal, 42 µM; in the assay with SF-268 CNS, more than 100 µM; in the assay on SK-MEL-28 melanoma, 60.8 µM. The compound also displayed a TGI in the assay on SW-620 colon of more than 100 µM.

For `C[C@]12CCC(=O)C(O)=C1CC[C@@H]1C2CC[C@]2(C)Nc3c(cnn3-c3ccccc3)CC12` (some centres undefined), the concentration for total growth inhibition (TGI) with CAKI-1 renal was more than 100 µM; with HCT-15 colon, more than 100 µM; in the assay on RPMI-8226 leukemia it was 97.5 µM; in the assay with RXF 393 renal it was more than 100 µM; in the assay with SK-MEL-2 melanoma, more than 100 µM; in the assay with SK-MEL-28 melanoma, more than 100 µM. Moreover, the TGI in the assay with SW-620 colon was more than 100 µM.

Regarding `C/C=C1/CCC2c3[nH]c4ccccc4c3CCN2C1` (centres undefined), the TGI in the assay with CAKI-1 renal, in the assay on RXF 393 renal, in the assay with SF-268 CNS, with SK-MEL-2 melanoma, in the assay on SK-MEL-28 melanoma and in the assay with SNB-19 CNS was more than 100 µM throughout. The compound further came in with a TGI in the assay on SW-620 colon of more than 100 µM.

With `COc1ccccc1C1c2cc3c(cc2OC(O)(CO)C1C(=O)O)OCO3` (centres undefined) (tested in a mixture with another compound), the TGI in the assay on HCT-15 colon, in the assay with RPMI-8226 leukemia, with RXF 393 renal, in the assay on SF-268 CNS, in the assay with SK-MEL-2 melanoma and with SK-MEL-28 melanoma was more than 100 µM each time. For the same compound, the TGI in the assay with SW-620 colon is more than 100 µM.

With `CNC(=O)CC1NC(=O)c2csc(n2)-c2ccc(-c3nc(C4=NC(C(=O)N5CCCC5C(N)=O)CO4)cs3)nc2-c2csc(n2)-c2csc(n2)C(C(C)C)NC(=O)CNC(=O)c2csc(n2)C(C(C)C)NC(=O)c2nc1sc2C` (centres undefined), the GI50 was more than 25 µM with CAKI-1 renal; more than 25 µM with HCT-15 colon; less than 0.001 µM in the assay on RPMI-8226 leukemia; more than 25 µM in the assay on RXF 393 renal; more than 25 µM in the assay with SF-268 CNS; more than 25 µM in the assay with SNB-19 CNS. Further, the GI50 with SW-620 colon is more than 25 µM. In addition, the TGI with CAKI-1 renal, in the assay on HCT-15 colon, in the assay on RXF 393 renal, with SF-268 CNS, with SK-MEL-28 melanoma and in the assay on SNB-19 CNS was more than 25 µM in each case. In addition, the TGI in the assay with SW-620 colon was more than 25 µM.

`O=[N+]([O-])c1cc(C2SCc3nc4ccccc4n32)ccc1Cl` (centres undefined): the TGI in the assay on CAKI-1 renal was more than 100 µM; with RPMI-8226 leukemia, 60.2 µM; in the assay on RXF 393 renal, 79 µM; in the assay on SF-268 CNS, 81.1 µM; in the assay on SK-MEL-2 melanoma it was 50.9 µM; with SK-MEL-28 melanoma, more than 100 µM. The concentration for total growth inhibition (TGI) with SNB-19 CNS and in the assay on SW-620 colon was more than 100 µM throughout.

As to `NCCN.NCCN.O=C([O-])CCl.O=C([O-])CCl.[Co+3].[O-][Cl+3]([O-])([O-])[O-]`, the GI50 in the assay on HCT-15 colon, in the assay with RPMI-8226 leukemia, with SF-268 CNS, with SK-MEL-2 melanoma, in the assay with SK-MEL-28 melanoma and with SNB-19 CNS was more than 100 µM each time. For the same compound, in the assay with SW-620 colon, the GI50 is more than 100 µM. Moreover, the TGI in the assay with HCT-15 colon, in the assay with RPMI-8226 leukemia, in the assay with SF-268 CNS, with SK-MEL-2 melanoma, in the assay on SK-MEL-28 melanoma and in the assay on SNB-19 CNS was more than 100 µM each time. In the assay with SW-620 colon, the TGI is more than 100 µM.

On to `O=C1C2C=CC(C2)C(c2ccc(O)cc2)N1O` (centres undefined), for which the TGI in the assay on CAKI-1 renal, with RPMI-8226 leukemia, in the assay on SF-268 CNS, with SK-MEL-2 melanoma, in the assay with SK-MEL-28 melanoma and in the assay with SNB-19 CNS was more than 100 µM each time. This compound gave a TGI in the assay on SW-620 colon of more than 100 µM.

The values above are taken from PubChem BioAssay (NCI).
